Here are results for 16 compounds from US20240208912A1 (Mirati Therapeutics, Inc., priority 2021, published 2024).

Read-outs that look alike come from different tables or passages of the source. A value given as a limit tells only on which side of the number the result lay.

One assay concerns the target T1, PRMT5/MEP50 complex (Homo sapiens, UniProt O14744).
T1 construct: purchased Reaction Biology Corporation
Nature of the assay: PRMT5:MEP50 HotSpot Assay (full-length histone H2A substrate, plus and minus MTA). The class given is biochemical. The settings on record: IC50 + 2 μM MTA, in the presence of 2 μM MTA. In short, it runs like this: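 Tritiated product on full-length recombinant H2A was counted by scintillation after the stopped reaction was captured on filter paper. Substrate is histone H2A; conditions include plus and minus MTA.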

In assay [1] the test system is HCT116 homozygous MTAP knockout cells. Nature of the assay: Proliferation assay (CellTiter-Glo, 10 days) in HCT116 homozygous MTAP knockout cells. Format: cell-based. The settings on record: CellTiter-Glo after 10 days of treatment, read-out: Proliferation IC50 (nM) HCT116 MTAP_KO. The gist of the method:
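CellTiter-Glo viability read on day 11 gives a 10-day IC50. Dosing began one day after seeding, with a 1:10 split into fresh drug-containing medium on day 6. Cells are HCT116 lacking both MTAP alleles via CRISPR/Cas9, run alongside the parental line.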
For orientation: ATP-based viability assays read luminescence as a measure of living cells.

Assay [2] relates to PRMT5-dependent Symmetric Di-methyl Arginine signal in HCT116 homozygous MTAP Knockout cells. Nature of the assay: SYM11 In-Cell Western in HCT116 homozygous MTAP knockout cells. Format: cell-based. The procedure: HCT116 cells were genetically engineered to knock out the function of both MTAP alleles using a CRISPR/Cas9 system and an sgRNA targeting the MTAP gene. Following Cas9/MTAP sgRNA transduction, clones were screened to confirm that each allele of the MTAP gene had been inactivated (i.e., homozygous MTAP knock out) creating an MTAP-deficient cell.
(§1) Control samples were analyzed in parallel.
(§2) Briefly, on Day 0, 2,000 HCT116 parental or HCT116 homozygous MTAP knockout cells were seeded in 96 well plates in McCoy's 5A supplemented with 10% fetal bovine serum and pen/strep and the cells were incubated overnight at 37° C. plus 5% CO2. The following day, cells were treated with DMSO vehicle control or a dose response of PRMT5 inhibitors, and incubated at 37° C. plus 5% CO^2 for four days.
(§3) After 4 days of treatment, the cells were fixed by adding 50 μl of 4% paraformaldehyde solution to each well and the cells were incubated for 20 min at room temperature. The paraformaldehyde solution was removed, 150 μl of ice-cold methanol was added and the plate was placed −20° C. for 10 minutes. The methanol was removed, 150 μl of Odyssey Blocking buffer+0.05% Tween20 was added and the plate was incubated at room temperature with shaking for one hour.
(§4) The primary SYM11 antibody solution was removed by aspiration and the wells were washed three consecutive times with phosphate buffered saline containing 0.1% Tween-20 (PBST).
(§5) The secondary antibody solution was removed by aspiration and the wells were washed three consecutive times with PBST.
(§6) The SYM11 signal and the DRAQ5 signal were quantified using a Li-Cor Odyssey machine reading at […], respectively. The SYM11/DRAQ5 ratio was used to calculate the inhibition of Symmetric Dimethyl Arginine as percent of DMSO control.

The subject of assay [3] is PRMT5-dependent Symmetric Di-methyl Arginine signal in HCT116 parental cells. Nature of the assay: SYM11 In-Cell Western in HCT116 parental cells. The class given is cell-based. The settings on record: Homo sapiens, HCT-116, 96 h, read-out: In-cell-Western (SYM11) IC50 (nM) HCT216 parental. As to the method:
as §1, §2, §3, §4, §5, §6

The mark [4] stands for this setting: 4 days of treatment, SYM11/DRAQ5 ratio as percent of DMSO control, read-out: In-cell-Western (SYM11) IC50 (nM) HCT116 MTAP_KO.
Where [5] appears, read: Homo sapiens, HCT-116, 96 h, 4 days of treatment, SYM11/DRAQ5 ratio as percent of DMSO control, read-out: In-cell-Western (SYM11) IC50 (nM) HCT116 MTAP_KO.
Where [6] appears, read: HCT116 parental cells, 4 days of treatment, SYM11/DRAQ5 ratio as percent of DMSO control.

T1 sequence (O14744 2-637 limits assumed): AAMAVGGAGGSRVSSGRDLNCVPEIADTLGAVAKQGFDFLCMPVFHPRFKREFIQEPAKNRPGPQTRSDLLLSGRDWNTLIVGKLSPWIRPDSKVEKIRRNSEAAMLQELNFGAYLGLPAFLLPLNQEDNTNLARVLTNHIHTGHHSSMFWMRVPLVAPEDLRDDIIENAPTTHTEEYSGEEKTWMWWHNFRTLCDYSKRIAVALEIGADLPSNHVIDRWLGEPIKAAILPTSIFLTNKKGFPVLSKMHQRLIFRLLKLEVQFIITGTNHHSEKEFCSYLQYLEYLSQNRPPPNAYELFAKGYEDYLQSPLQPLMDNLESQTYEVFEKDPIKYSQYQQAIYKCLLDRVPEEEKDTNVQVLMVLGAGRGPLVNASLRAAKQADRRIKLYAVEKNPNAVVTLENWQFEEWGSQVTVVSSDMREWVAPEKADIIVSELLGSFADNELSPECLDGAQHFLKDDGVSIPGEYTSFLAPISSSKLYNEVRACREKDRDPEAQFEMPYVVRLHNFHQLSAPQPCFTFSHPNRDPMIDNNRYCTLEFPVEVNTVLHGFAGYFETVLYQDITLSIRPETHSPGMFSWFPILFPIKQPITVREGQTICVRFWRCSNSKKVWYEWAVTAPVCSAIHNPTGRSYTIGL
T1 sequence (Q9BQA1 2-342 partner limits assumed): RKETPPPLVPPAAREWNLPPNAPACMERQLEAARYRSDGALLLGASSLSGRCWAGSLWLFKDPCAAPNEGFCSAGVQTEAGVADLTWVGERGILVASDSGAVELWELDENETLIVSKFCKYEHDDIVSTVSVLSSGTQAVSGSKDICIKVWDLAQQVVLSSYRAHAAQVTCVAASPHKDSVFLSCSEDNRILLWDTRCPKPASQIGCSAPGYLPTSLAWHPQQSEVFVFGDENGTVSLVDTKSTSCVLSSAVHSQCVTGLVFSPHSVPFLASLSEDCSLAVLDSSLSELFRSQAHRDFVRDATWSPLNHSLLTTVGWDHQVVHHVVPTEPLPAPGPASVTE

For the compound `Cc1cc(-c2cnn(C)c2-c2c(C#N)cc3ccccc3c2Cl)cc2c(CN)n[nH]c(=O)c12` (single isomer, unassigned) [Example 16-51, (P)-3-[4-[4-(aminomethyl)-8-methyl-1-oxo-2H-phthalazin-6-yl]-2-methyl-pyrazol-3-yl]-4-chloro-naphthalene-2-carbonitrile], the IC50 on PRMT5/MEP50 complex stood at 261 nM; in assay [1], 706 nM; in assay [2] (setting [4]), 6 nM.

Turning to `Cc1cc(-c2cnn(C)c2-c2c(C#N)cc3ccccc3c2Cl)cc2c(CN)n[nH]c(=O)c12` (single isomer, unassigned) [Example 16-52, (M)-3-[4-[4-(aminomethyl)-8-methyl-1-oxo-2H-phthalazin-6-yl]-2-methyl-pyrazol-3-yl]-4-chloro-naphthalene-2-carbonitrile], the results for the IC50 (on PRMT5/MEP50 complex; in assay [1]; in assay [2] (setting [4])) were 29.1 nM, 19 nM and 13 nM, respectively.

For `Cn1ncc(-c2cc(Cl)c3c(=O)[nH]nc(CN)c3c2)c1-c1c(C#N)cc2ccccc2c1Cl` (single isomer, unassigned) [Example 16-63, (P)-3-[4-[4-(aminomethyl)-8-chloro-1-oxo-2H-phthalazin-6-yl]-2-methyl-pyrazol-3-yl]-4-chloro-naphthalene-2-carbonitrile], the IC50 at PRMT5/MEP50 complex worked out at 341 nM; in assay [1] it was 859 nM; in assay [2] (setting [4]) it was 437 nM.

As for `Cn1ncc(-c2cc(Cl)c3c(=O)[nH]nc(CN)c3c2)c1-c1c(C#N)cc2ccccc2c1Cl` (single isomer, unassigned) [Example 16-64, (M)-3-[4-[4-(aminomethyl)-8-chloro-1-oxo-2H-phthalazin-6-yl]-2-methyl-pyrazol-3-yl]-4-chloro-naphthalene-2-carbonitrile], the IC50 on PRMT5/MEP50 complex turned out to be 23.3 nM; in assay [1], 17 nM; in assay [2] (setting [4]), 13 nM.

In the case of `Cn1ncc(-c2ccc3c(=O)[nH]nc(CN)c3c2)c1-c1c(F)c(Cl)cc(OC2CC2)c1C#N` [Example 4-230, 2-(4-(4-(aminomethyl)-1-oxo-1,2-dihydrophthalazin-6-yl)-1-methyl-1H-pyrazol-5-yl)-4-chloro-6-cyclopropoxy-3-fluorobenzonitrile], the IC50 in assay [3] is more than 1000 nM; in assay [2] (read-out: In-cell-Western (SYM11) IC50 (nM) HCT116 MTAP_KO, 4 days of treatment, SYM11/DRAQ5 ratio as percent of DMSO control), 6 nM.

With `CCn1cccc(-c2c(-c3ccc4c(=O)[nH]nc(CN)c4c3)cnn2C)c1=O` [Example 4-255, 4-(aminomethyl)-6-(5-(1-ethy1-2-oxo-1,2-dihydropyridin-3-yl)-1-methyl-1H-pyrazol-4-yl)phthalazin-1(2H)-one], the IC50 at PRMT5/MEP50 complex came out at 9620 nM; in assay [1] (Homo sapiens, HCT-116, 240 h) it was 1630 nM; in assay [2] (setting [5]), 955 nM.

On to `Cn1ncc(-c2ccc3c(=O)[nH]nc(CN)c3c2)c1-c1sc2ccc(Cl)cc2c1C#N` [Example 4-262, 2-[4-[4-(aminomethyl)-1-oxo-2H-phthalazin-6-yl]-2-methyl-pyrazol-3-yl]-5-chloro-benzothiophene-3-carbonitrile], for which the IC50 at PRMT5/MEP50 complex amounted to 108 nM; in assay [1] (Homo sapiens, HCT-116, 240 h), 281 nM; in assay [2] (setting [5]), 98 nM.

In the case of `Cn1ncc(-c2ccc3c(=O)[nH]nc(CN)c3c2)c1-c1c(C#N)sc2ccccc12` [Example 4-266, 3-[4-[4-(aminomethyl)-1-oxo-2H-phthalazin-6-yl]-2-methyl-pyrazol-3-yl]benzothiophene-2-carbonitrile], the IC50 was 507 nM on PRMT5/MEP50 complex; 312 nM in assay [1] (Homo sapiens, HCT-116, 240 h); 324 nM in assay [2] (setting [5]).

Take `Cn1ncc(-c2ccc3c(=O)[nH]nc(CN)c3c2)c1-c1csc2cccc(=O)n12` [Example 4-267, 3-[4-[4-(aminomethyl)-1-oxo-2H-phthalazin-6-yl]-2-methyl-pyrazol-3-yl] thiazolo[3,2-a]pyridin-5-one]: the IC50 at PRMT5/MEP50 complex was 6140 nM; in assay [1] (Homo sapiens, HCT-116, 240 h) it was 10000 nM; in assay [2] (setting [5]), 1000 nM.

As to `Cn1ncc(-c2cc(C(F)F)c3c(=O)[nH]nc(CN)c3c2)c1-c1sc2ccccc2c1C#N` [Example 10-21, 2-[4-[4-(aminomethyl)-8-(difluoromethyl)-1-oxo-2H-phthalazin-6-yl]-2-methyl-pyrazol-3-yl]benzothiophene-3-carbonitrile], the IC50 was 4.09 nM at PRMT5/MEP50 complex; 35 nM in assay [1] (Homo sapiens, HCT-116, 240 h); more than 1000 nM in assay [3] (setting [6]); 35 nM in assay [2] (setting [5]).

Regarding `Cn1ncc(-c2cc(Cl)c3c(=O)[nH]nc(CN)c3c2)c1-c1sc2ccccc2c1C#N` [Example 10-22, 2-(4-(4-(aminomethyl)-8-chloro-1-oxo-1,2-dihydrophthalazin-6-yl)-1-methyl-1H-pyrazol-5-yl)benzo[b]thiophene-3-carbonitrile], the IC50 worked out at 86.8 nM at PRMT5/MEP50 complex; 52 nM in assay [1] (Homo sapiens, HCT-116, 240 h); 17 nM in assay [2] (setting [5]).

As for `Cc1cc(-c2cnn(C)c2-c2sc3ccccc3c2C#N)cc2c(CN)n[nH]c(=O)c12` [Example 10-23, 2-[4-[4-(aminomethyl)-8-methyl-1-oxo-2H-phthalazin-6-yl]-2-methyl-pyrazol-3-yl]benzo-thiophene-3-carbonitrile], the IC50 at PRMT5/MEP50 complex was 126 nM; in assay [1] (Homo sapiens, HCT-116, 240 h), 30 nM; in assay [3] (setting [6]), more than 1000 nM; in assay [2] (setting [5]) it was 15 nM.

`Cn1ncc(-c2cc([C@@H]3CCCO3)c3c(=O)[nH]nc(CN)c3c2)c1-c1sc2ccccc2c1C#N` [Example 15-3, (S)-2-(4-(4-(aminomethyl)-1-oxo-8-(THF-2-yl)-1,2-dihydrophthalazin-6-yl)-1-methyl-1H-pyrazol-5-yl)benzo[b]thiophene-3-carbonitrile]: the IC50 on PRMT5/MEP50 complex was determined as 16.3 nM; in assay [1] (Homo sapiens, HCT-116, 240 h) it was 22 nM; in assay [3] (setting [6]), 330 nM; in assay [2] (setting [5]), 6 nM.

On to `Cn1ncc(-c2cc([C@H]3CCCO3)c3c(=O)[nH]nc(CN)c3c2)c1-c1sc2ccccc2c1C#N` [Example 15-4, (R)-2-(4-(4-(aminomethyl)-1-oxo-8-(THF-2-yl)-1,2-dihydrophthalazin-6-yl)-1-methyl-1H-pyrazol-5-yl)benzo[b]thiophene-3-carbonitrile], for which the IC50 stood at 261 nM at PRMT5/MEP50 complex; 1110 nM in assay [1] (Homo sapiens, HCT-116, 240 h); 551 nM in assay [3] (setting [6]); 551 nM in assay [2] (setting [5]).

In the case of `COCc1cc(-c2cnn(C)c2-c2sc3ccccc3c2C#N)cc2c(CN)n[nH]c(=O)c12` [Example 15-5, 2-[4-[4-(aminomethyl)-8-(methoxymethyl)-1-oxo-2H-phthalazin-6-yl]-2-methyl-pyrazol-3-yl]benzothiophene-3-carbonitrile], the IC50 in assay [1] (Homo sapiens, HCT-116, 240 h) amounted to 23 nM; in assay [3] (setting [6]), 595 nM; in assay [2] (setting [5]), 5 nM.

For the compound `Cn1ncc(-c2ccc3c(=O)[nH]cc(CN)c3c2)c1-c1ccc2ccccc2c1C#N` [Example 18-2, 2-[4-[4-(aminomethyl)-1-oxo-2H-isoquinolin-6-yl]-2-methyl-pyrazol-3-yl]naphthalene-1-carbonitrile], the IC50 on PRMT5/MEP50 complex was 2930 nM; in assay [1] (Homo sapiens, HCT-116, 240 h), 2870 nM; in assay [2] (setting [5]), more than 1000 nM.
